Read-outs that look alike come from different tables or passages of the source. Non-standard residues stand in square brackets, D forms with d. Residues, ends and D or L forms follow the SMILES beside them. *: point of attachment. Myristoyl = CCCCCCCCCCCCCC(=O)*; Lauroyl = CCCCCCCCCCCC(=O)*; Decanoyl = CCCCCCCCCC(=O)*; Octanoyl = CCCCCCCC(=O)*; Hexanoyl = CCCCCC(=O)*
How the values were obtained:
human erythrocytes = details: 150 μM peptide; 0.5% (v/v) red blood cell suspension in PBS, 1 h at 37 °C, absorbance 414 nm; melittin positive control, PBS negative control; three wells
Protocol: PBS served as the negative control and 5 μM melittin served as the positive control. All melittin solutions were prepared in Protein LoBind Eppendorf tubes to prevent the adsorption of melittin to the inner surface of the tubes.
Preparation of peptide solutions and melittin: A 5 μM melittin solution in PBS was prepared the day before the hemolysis experiment. First, 150 μL of this solution was transferred to each of the positive control wells and stored in the fume hood to coat the wells. On the day of the experiment, the melittin solution was discarded and the wells were washed with 3 × PBS. A 2.5 μM melittin solution in PBS was prepared and 75 μL was transferred to the wells. PBS (150 μL) was used as the negative control. A solution of each peptide was prepared by dissolving the peptide in 0.5 mL PBS to obtain a concentration of 300 μM. Each peptide solution (150 μL) was transferred to the wells in three wells each in row A, and the plate was diluted down.
Preparation of the red blood cell suspension: 1 mL of type O- whole blood in citrate was transferred to a cryotube. The whole blood was washed with 3 × PBS; adding 3, 3, and 4 mL of PBS, respectively. In between, the blood was centrifuged for 8 min (3000, 3000, and 4000 rpm, respectively) and the supernatant was removed after each centrifugation. A 0.5% (v/v) blood suspension was prepared by adding 40 μL of the washed blood cells to 8 mL of PBS. Then, 75 μL of the red blood cell suspension was transferred to each well and mixed gently. The plate was sealed and incubated for 1 h at 37 °C. After incubation, the plate was centrifuged at 4000 rpm for 10 min. Afterwards, 60 μL of the supernatant from each well was quickly transferred to an ELISA plate.
The absorbance was determined at 414 nm, and Equation (1) below was used to calculate the hemolytic activity of the peptides.

[1] = Hydrophobicity by analytical RP-HPLC (%B at elution); assay type: physicochemical; details: chromatographic, analytical reversed-phase HPLC, Waters Symmetry C18 5 μm 4.6 × 250 mm; A: H2O + 0.1% TFA, B: 90:10 ACN-H2O + 0.1% TFA
Protocol: Peptide purity was determined as described previously by analytical RP-HPLC using a Waters 717 plus Autosampler, In-line Degasser AF, 600 Controller, and 2996 Photodiode Array Detector; the column used was a Waters Symmetry C18 column (5 μm, 4.6 mm × 250 mm, Milford, MA, USA). An aqueous acetonitrile (ACN) gradient with 0.1% TFA added (mixing eluent A: H2O + 0.1% TFA and eluent B: 90:10 ACN-H2O + 0.1% TFA) was employed using milli-Q water. Preparative RP-HPLC was performed by using a Waters XSelect Peptide CSH C18 OBDTM column (5 μm, 19 mm × 250 mm, Milford, MA, USA) with the same eluents as for analytical HPLC.
*Hydrophobicity as indicated by the percentage of mobile phase B (%B) at the peak elution time on analytical

[2] = test system: K. pneumoniae (ATCC 13883); assay type: cell-based, Klebsiella pneumoniae; details: K. pneumoniae ATCC 13883, MHB-II, 37 °C, 18–24 h, triplicate
Protocol: (§1) The following bacteria were grown in cation-adjusted Muller-Hinton broth at 37 °C with shaking: A. baumannii (ATCC 19606), E. coli (ATCC 25922), K. pneumoniae (ATCC 13883), P. aeruginosa (ATCC 27853), and S. aureus (ATCC 29213).
(§2) The MIC experiments were performed in triplicate, as described in Jensen et al.. Briefly, all peptide stock solutions were prepared by dissolving each peptide in Milli-Q water to obtain a concentration of 10 mg/mL. A bacterial concentration of 10^6 CFU/mL was obtained through the dilution of an overnight culture (MHB-II medium). When the overnight culture was prepared, the OD was measured using a spectrophotometer and when an OD value between 0.2 and 0.4 was obtained, the culture was diluted to OD = 0.002. The MIC determination was carried out in 96-well polypropylene microtitre plates. […] A final bacterial inoculum of 5 × 10^5 CFU/mL per well was obtained by adding 50 μL bacterial suspension to the microtiter plates. The plates were incubated at 37 °C for 18–24 h. To verify the CFU, 10 μL of bacteria suspension was transferred to 990 μL 0.9 % saline solution, from which a 10-fold dilution was carried out. Then, 100 μL of the dilution was plated on an LB plate and left for bacterial growth overnight at 37 °C. Colistin and vancomycin were used as the positive controls.

E. coli (ATCC 25922) = assay type: cell-based, Escherichia coli; details: E. coli ATCC 25922, MHB-II, 37 °C, 18–24 h, triplicate
Protocol: as §1, §2

[3] = test system: P. aeruginosa (ATCC 27853); assay type: cell-based, Pseudomonas aeruginosa; details: P. aeruginosa ATCC 27853, MHB-II, 37 °C, 18–24 h, triplicate
Protocol: as §1, §2

S. aureus (ATCC 29213) = test: MIC determination, broth microdilution; assay type: cell-based, Staphylococcus aureus; details: S. aureus ATCC 29213, MHB-II, 37 °C, 18–24 h, triplicate
Protocol: as §1, §2

[4] = test system: A. baumannii (ATCC 19606); assay type: cell-based, Acinetobacter baumannii; details: A. baumannii ATCC 19606, MHB-II, 37 °C, 18–24 h, triplicate
Protocol: as §1, §2

| Structure (SMILES) | % hemolysis of human erythrocytes (human erythrocytes) | %B (hydrophobicity: percentage of mobile phase B at the peak elution time) [1] | MIC KP ([2]; inoculum 5 × 10^5 CFU/mL) | MIC KP ([2]; value in brackets) | MIC EC (E. coli (ATCC 25922); inoculum 5 × 10^5 CFU/mL) | MIC EC (E. coli (ATCC 25922); value in brackets) | MIC PA ([3]; inoculum 5 × 10^5 CFU/mL) | MIC PA ([3]; value in brackets) | MIC SA (S. aureus (ATCC 29213); inoculum 5 × 10^5 CFU/mL) | MIC SA (S. aureus (ATCC 29213); value in brackets) | MIC AB ([4]; inoculum 5 × 10^5 CFU/mL) | MIC AB ([4]; value in brackets) |
| --- | --- | --- | --- | --- | --- | --- | --- | --- | --- | --- | --- | --- |
| CCCCCC(=O)N[C@H](CCCCN)C(=O)N[C@H](CCCCN)C(=O)N[C@H](CC(C)C)C(=O)N[C@H](Cc1ccccc1)C(=O)N[C@H](CCCCN)C(=O)N[C@H](CCCCN)C(=O)N[C@@H](C(=O)N[C@H](CC(C)C)C(=O)N[C@H](CCCNC(=N)N)C(=O)N[C@H](Cc1ccc(O)cc1)C(=O)N[C@H](CC(C)C)C(N)=O)[C@H](C)CC [compound 2] (Hexanoyl-[dK][dK][dL][dF][dK][dK][dI][dL][dR][dY][dL]-NH2) | 100% | 67.9 %B | 8 µg/mL | 5.2 µM | 8 µg/mL | 5.2 µM | 32 µg/mL | 20.7 µM | 64 µg/mL | 41.4 µM | 4 µg/mL | 2.6 µM |
| CCCCCCCC(=O)N[C@H](CCCCN)C(=O)N[C@H](CCCCN)C(=O)N[C@H](CC(C)C)C(=O)N[C@H](Cc1ccccc1)C(=O)N[C@H](CCCCN)C(=O)N[C@H](CCCCN)C(=O)N[C@@H](C(=O)N[C@H](CC(C)C)C(=O)N[C@H](CCCNC(=N)N)C(=O)N[C@H](Cc1ccc(O)cc1)C(=O)N[C@H](CC(C)C)C(N)=O)[C@H](C)CC [compound 3] (Octanoyl-[dK][dK][dL][dF][dK][dK][dI][dL][dR][dY][dL]-NH2) | 100% | 64.1 %B | 8 µg/mL | 5.1 µM | 16 µg/mL | 10.2 µM | 32 µg/mL | 20.3 µM |  | 40.1 µM | 4 µg/mL | 2.5 µM |
| CCCCCCCCCC(=O)N[C@H](CCCCN)C(=O)N[C@H](CCCCN)C(=O)N[C@H](CC(C)C)C(=O)N[C@H](Cc1ccccc1)C(=O)N[C@H](CCCCN)C(=O)N[C@H](CCCCN)C(=O)N[C@@H](C(=O)N[C@H](CC(C)C)C(=O)N[C@H](CCCNC(=N)N)C(=O)N[C@H](Cc1ccc(O)cc1)C(=O)N[C@H](CC(C)C)C(N)=O)[C@H](C)CC [compound 4] (Decanoyl-[dK][dK][dL][dF][dK][dK][dI][dL][dR][dY][dL]-NH2) | 100% | 85.0 %B | 32 µg/mL | 20.0 µM | 32 µg/mL | 20.0 µM | 32 µg/mL | 20.0 µM | 32 µg/mL | 20.0 µM | 32 µg/mL | 20.0 µM |
| CCCCCCCCCCCC(=O)N[C@H](CCCCN)C(=O)N[C@H](CCCCN)C(=O)N[C@H](CC(C)C)C(=O)N[C@H](Cc1ccccc1)C(=O)N[C@H](CCCCN)C(=O)N[C@H](CCCCN)C(=O)N[C@@H](C(=O)N[C@H](CC(C)C)C(=O)N[C@H](CCCNC(=N)N)C(=O)N[C@H](Cc1ccc(O)cc1)C(=O)N[C@H](CC(C)C)C(N)=O)[C@H](C)CC [compound 5] (Lauroyl-[dK][dK][dL][dF][dK][dK][dI][dL][dR][dY][dL]-NH2) | 100% | 90.5 %B | 64 µg/mL | 39.2 µM | 64 µg/mL | 39.2 µM | 64 µg/mL | 39.2 µM | 64 µg/mL | 39.2 µM | 64 µg/mL | 39.2 µM |
| CCCCCCCCCCCCCC(=O)N[C@H](CCCCN)C(=O)N[C@H](CCCCN)C(=O)N[C@H](CC(C)C)C(=O)N[C@H](Cc1ccccc1)C(=O)N[C@H](CCCCN)C(=O)N[C@H](CCCCN)C(=O)N[C@@H](C(=O)N[C@H](CC(C)C)C(=O)N[C@H](CCCNC(=N)N)C(=O)N[C@H](Cc1ccc(O)cc1)C(=O)N[C@H](CC(C)C)C(N)=O)[C@H](C)CC [compound 6] (Myristoyl-[dK][dK][dL][dF][dK][dK][dI][dL][dR][dY][dL]-NH2) | 100% | 96.5 %B | > 64 µg/mL | > 38.6 µM | > 64 µg/mL | > 38.6 µM | > 64 µg/mL | > 38.6 µM | > 64 µg/mL |  | > 64 µg/mL | > 38.6 µM |
| CC[C@@H](C)[C@@H](NC(=O)[C@@H](CCCCN)NC(=O)[C@@H](CCCCN)NC(=O)[C@@H](Cc1ccccc1)NC(=O)[C@@H](CC(C)C)NC(=O)[C@@H](CCCCN)NC(=O)[C@H](N)CCCCN)C(=O)N[C@H](CC(C)C)C(=O)N1CCCC[C@H](C(N)=O)NC(=O)[C@@H](Cc2ccc(O)cc2)NC(=O)[C@@H](CCCNC(=N)N)NC(=O)C1 [compound 7] | 3% | 44.1 %B | > 64 µg/mL | > 42.6 µM | > 64 µg/mL | > 42.6 µM | > 64 µg/mL | > 42.6 µM | > 64 µg/mL | > 42.6 µM | > 64 µg/mL | > 42.6 µM |
| CC[C@@H](C)[C@@H](NC(=O)[C@@H](CCCCN)NC(=O)[C@@H](CCCCN)NC(=O)[C@@H](Cc1ccccc1)NC(=O)[C@@H](CC(C)C)NC(=O)[C@@H](CCCCN)NC(=O)[C@H](N)CCCCN)C(=O)N1CCCC[C@H](C(N)=O)NC(=O)[C@@H](Cc2ccc(O)cc2)NC(=O)[C@@H](CCCNC(=N)N)NC(=O)[C@@H](CC(C)C)NC(=O)C1 [compound 8] | 3% |  | > 64 µg/mL | > 42.6 µM | > 64 µg/mL | > 42.6 µM | > 64 µg/mL | > 42.6 µM | > 64 µg/mL | > 42.6 µM | > 64 µg/mL | > 42.6 µM |

— paper PMC9404711 (Antibiotics, 2022)
